The source of these data is patent US20250074897A1, “PYRIDAZINONES AS PARP7 INHIBITORS” (Ribon Therapeutics, Inc., priority 2019, published 2025).

A word on the IC50: it is the midpoint of a concentration-inhibition curve. High values mean lower potency, low ones higher potency.

In this assay the target is T1, PARP7 (TIPARP) (Homo sapiens, UniProt Q7Z3E1).
T1 sequence (Q7Z3E1 1-657): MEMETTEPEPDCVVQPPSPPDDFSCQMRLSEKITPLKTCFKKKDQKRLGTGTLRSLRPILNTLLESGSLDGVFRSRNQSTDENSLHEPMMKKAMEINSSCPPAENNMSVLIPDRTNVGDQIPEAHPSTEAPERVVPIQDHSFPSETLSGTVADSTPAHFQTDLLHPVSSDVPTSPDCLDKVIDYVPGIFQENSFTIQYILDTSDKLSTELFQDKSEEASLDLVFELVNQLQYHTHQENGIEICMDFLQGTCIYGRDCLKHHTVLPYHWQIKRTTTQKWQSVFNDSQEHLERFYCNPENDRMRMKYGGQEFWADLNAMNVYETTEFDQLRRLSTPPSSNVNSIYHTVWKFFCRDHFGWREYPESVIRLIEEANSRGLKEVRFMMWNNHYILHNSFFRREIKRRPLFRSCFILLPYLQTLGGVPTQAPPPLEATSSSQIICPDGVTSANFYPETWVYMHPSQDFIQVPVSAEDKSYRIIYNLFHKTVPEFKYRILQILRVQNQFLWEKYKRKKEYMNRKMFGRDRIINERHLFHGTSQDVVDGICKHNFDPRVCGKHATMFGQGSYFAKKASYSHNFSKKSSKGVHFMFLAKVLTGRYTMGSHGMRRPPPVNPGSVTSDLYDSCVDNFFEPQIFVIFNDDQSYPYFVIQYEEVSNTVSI
In words: Enzymatic assay for inhibition of PARP7: TR-FRET displacement of biotinylated Probe A from the TIPARP active site. The assay is classed as binding. Particulars: 6 nM TIPARP, 2 nM Probe A, 25° C., 30 min incubation with test compound. The method, then:
Enzymatic Assay for Inhibition of PARP7
Displacement of Probe A, a biotinylated probe binding to the TIPARP active site, was measured using a time-resolved fluorescence energy transfer (TR-FRET) assay. 20 nL of a dose response curve of each test compound was spotted in black 384-well polystyrene proxiplates (Perkin Elmer) using a Mosquito (TTP Labtech). Reactions were performed in a 8 μL volume by adding 6 μL of TIPARP and Probe A in assay buffer (20 mM HEPES pH=8, 100 mM NaCl, 0.1% bovine serum albumin, 2 mM DTT and 0.002% Tween20), incubating with test compound at 25° C. for 30 min, then adding 2 μL of ULight-anti 6xHis and LANCE Eu-W1024 labeled streptavidin (Perkin Elmer). The final concentrations of TIPARP and Probe A were 6 nM and 2 nM, respectively. The final concentration of ULight-anti 6xHis and LANCE Eu-W1024 labeled streptavidin were 4 nM and 0.25 nM, respectively. Reactions were incubated at 25° C. for an additional 30 min, then read on an Envision platereader equipped with a LANCE/DELFIA top mirror (Perkin Elmer) using excitation of 320 nm and emission of 615 nm and […] with a 90 μs delay. The ratio of the 665/615 nm emission were calculated for each well to determine the amount of complex of TIPARP and Probe A in each well. Control wells containing a negative control of 0.25% DMSO vehicle or a positive control of 100 μM 5-(5-(piperidin-4-yloxy)isoindolin-2-yl)-4-(trifluoromethyl)pyridazin-3(2H)-one were used to calculate the % inhibition as described below:
where TRFempd is the TR-FRET ratio from the compound treated well, TRFmin is the TR-FRET ratio from the 5-(5-(piperidin-4-yloxy)isoindolin-2-yl)-4-(trifluoromethyl)pyridazin-3(2H)-one-treated positive control well and TRFmax is the TR-FRET ratio from the DMSO-treated negative control well.
The % inhibition values were plotted as a function of compound concentration and the following 4-parameter fit was applied to derive the IC50 values:
where top and bottom are normally allowed to float, but may be fixed at 100 or 0 respectively in a 3-parameter fit. The Hill Coefficient is normally allowed to float but may also be fixed at 1 in a 3-parameter fit. Y is the % inhibition and X is the compound concentration.
`C[C@@H](COC[C@@H](O)C(=O)N1CCN(c2ncc(Cl)cn2)CC1)Nc1cn[nH]c(=O)c1C(F)(F)F` (single isomer, unassigned) [Example 6A]: the IC50 was < 100 nM. Consider `C[C@@H](COC[C@H](O)C(=O)N1CCN(c2ncc(C(F)(F)F)cn2)CC1)Nc1cn[nH]c(=O)c1C(F)(F)F` (single isomer, unassigned) [Example 1B], for which the half-inhibitory concentration (IC50) was < 100 nM. As for `C[C@@H](COC[C@@H](O)C(=O)N1CCN(c2ccc(C#N)cn2)CC1)Oc1cn[nH]c(=O)c1C(F)(F)F` [Example 10A, 6-(4-((R)-2-hydroxy-3-((S)-2-((6-oxo-5-(trifluoromethyl)-1,6-dihydropyridazin-4-yl)oxy)propoxy)propanoyl)piperazin-1-yl)nicotinonitrile], the figure is < 100 nM. As for `C[C@@H](COC[C@@H](O)C(=O)N1CCN(c2ncc(C(F)(F)F)cn2)CC1)Nc1cn[nH]c(=O)c1C(F)(F)F` (single isomer, unassigned) [Example 1A], the figure is < 100 nM. Turning to `O=C([C@H](O)COC[C@H](COC(F)(F)F)Nc1cn[nH]c(=O)c1C(F)(F)F)N1CCN(c2ncc(C(F)(F)F)cn2)CC1` [Example 16A, 5-(((R)-1-((R)-2-hydroxy-3-oxo-3-(4-(5-(trifluoromethyl)pyrimidin-2-yl)piperazin-1-yl)propoxy)-3-(trifluoromethoxy)propan-2-yl)amino)-4-(trifluoromethyl)pyridazin-3(2H)-one], the 50% inhibitory concentration (IC50) is < 100 nM. `C[C@@H](COC[C@H](O)C(=O)N1CCN(c2ncc(Cl)cn2)CC1)Nc1cn[nH]c(=O)c1C(F)(F)F` (single isomer, unassigned) [Example 6B]: the IC50 is < 100 nM. As for `C[C@@H](COC[C@H](O)C(=O)N1CCN(c2ncc(C(F)(F)F)cn2)CC1)Oc1cn[nH]c(=O)c1C(F)(F)F` (single isomer, unassigned) [Example 7B], the figure is < 100 nM; as for `C[C@@H](COC[C@@H](O)C(=O)N1CCN(c2ncc(Cl)cn2)CC1)Oc1cn[nH]c(=O)c1C(F)(F)F` [Example 9A, 5-(((S)-1-((R)-3-(4-(5-chloropyrimidin-2-yl)piperazin-1-yl)-2-hydroxy-3-oxopropoxy)propan-2-yl)oxy)-4-(trifluoromethyl)pyridazin-3(2H)-one], < 100 nM. As for `C[C@@H](COC[C@@H](O)C(=O)N1CCN(c2cnc(C(F)(F)F)cn2)CC1)Nc1cn[nH]c(=O)c1C(F)(F)F` [Example 2A, 5-(((S)-1-((R)-2-hydroxy-3-oxo-3-(4-(5-(trifluoromethyl)pyrazin-2-yl)piperazin-1-yl)propoxy)propan-2-yl)amino)-4-(trifluoromethyl)pyridazin-3(2H)-one], the figure is < 100 nM.
